Assay results reported in PMC10531168, “Development of Stable Amino-Pyrimidine–Curcumin Analogs: Synthesis, Equilibria in Solution, and Potential Anti-Proliferative Activity” (International Journal of Molecular Sciences, 2023).
Like-named read-outs stand apart in the source and are kept apart here.

Columns and labels:
PC3 cells [1] = test: Cell viability assay (Presto Blue), 48 h; type: cell-based, human; conditions: PC3, 48 h treatment, mean of three independent experiments, n.a. = not active at tested concentrations (≤100 µM)
Protocol: (§1) To determine the anti-proliferative activity of the compounds on cancer cells, we performed dose–response treatments for 48 h on androgen-sensitive and androgen-insensitive PCa cells (LNCaP and PC3, respectively), as well as CRC cell lines (HCT116 and HT29).
(§2) The human colon cell lines, HT29 (ATCC Cat# HTB-38) and HCT116 (ATCC Cat# CCL-247), were grown in DMEM High-Glucose Medium (Biowest, Nuaillé, France), while the human prostate cell lines, PC3 (ATCC Cat# CRL-1435) and LNCaP (ATCC Cat# CRL-1740), were grown in Ham’s F12 (Biowest, Nuaillé, France) and RPMI 1640 (Biowest, Nuaillé, France), respectively. All media were supplemented with 2 mM glutamine, 100 IU/mL penicillin, 100 μg/mL streptomycin, and 10% fetal bovine serum (FBS, Gibco, Fisher Scientific Italia, Segrate (MI), Italia)). The cells were grown at 37 °C in a humified 5% CO2 atmosphere.
(§3) HCT116, HT29, PC3, or LNCaP cells were seeded into a 96-well plate at a density of 5000 cells/well. Cells were treated with eight different concentrations of pyrimidine derivates and curcumin for 48 h, at concentrations starting at 30 μM with 2-fold serial dilutions for curcumin and starting at 100 μM with 3-fold serial dilutions for pyrimidine derivates. Cell viability was measured using Presto Blue cell viability reagent (#A13261, Thermo Fisher Scientific, Waltham, MA, USA), according to the manufacturer’s protocol. The concentration at which cellular growth is inhibited by 50% (GI50) was determined.

LNCaP cells [2] = test: Cell cycle analysis (propidium iodide cytofluorimetry); type: cell-based, human; conditions: 48 h at GI50 dose; for % cells SubG1 (apoptotic cells): DMSO control 0.9; for % cells S: DMSO control 12.5; for % cells G2/M: DMSO control 18.4; for % cells G0/G1: DMSO control 65.1
Protocol: (§4) To further investigate the effects of PY1 and PY3 on cell growth, we analyzed the cell cycle progression of LNCaP cells treated at GI50 doses for 48 h (Figure 6 and Figure S4). […] Compared to curcumin, PY1 induced a similar but enhanced effect on the cell cycle, with apoptosis and S-phase being 9.6% and 6.4%, respectively. […] This effect was similarly observed in PC3 and HCT116 cells, with G2/M cells increasing from 14.6% to 62% in PC3 and from 17% to 33% in HCT116 cells (Figure S4).
(§5) Cells were seeded into a 24-well plate at a density of 35,000 cells/well and harvested after 48 h of treatment at GI50 concentrations. Cell cycle analysis of cells stained with propidium iodide solution (propidium iodide 25 µg/mL, Na-Citrate 3.4 mM, NaCl 9.65 mM, NP-40 0.03%) was performed using an Attune Next cytofluorimeter (Thermo Fisher Scientific, Waltham, MA, USA). DMSO was used as the control. Statistical analysis was performed with GraphPad PRISM 6 software (GraphPad Prism), using two-way ANOVA as specified in the figure legends. Graph represents means ± standard errors of the mean (SEM), n = 3. Data were considered to be statistically significant if p < 0.05 (*), p < 0.01 (**), p < 0.001(***), and p < 0.0001 (****).

HT29 cells [3] = test: Cell viability assay (Presto Blue), 48 h; type: cell-based; conditions: Homo sapiens, HT-29; HT29, 48 h treatment, mean of three independent experiments; n.a. = not active at tested concentrations (≤100 µM)
Protocol: as §1, §2, §3

HCT116 cells [4] = test: Cell viability assay (Presto Blue), 48 h; type: cell-based; conditions: Homo sapiens, HCT-116; HCT116, 48 h treatment, mean of three independent experiments; n.a. = not active at tested concentrations (≤100 µM)
Protocol: as §1, §2, §3

[5] = set-up: method as in doi:10.1016/S0020-1693(01)00687-9; conditions: cited from earlier work
LNCaP cells [6] = test: Cell viability assay (Presto Blue), 48 h; type: cell-based, human; conditions: 48 h treatment, mean of three independent experiments, n.a. = not active at tested concentrations (≤100 µM)
Protocol: as §1, §2, §3

HT29 cells [7] = tested on: HT29 cells; set-up: method as in PMID 27614381; conditions: read-out: GI50 (printed IG50), HT29 cell proliferation; cited from earlier work
[8] = UV-Vis pH-metric spectrophotometric titration, protonation constants (HypSpec); type: physicochemical; conditions: 298 K; for pKa: aqueous solution with <2% v/v methanol
Description: Pyrimidine derivatives can be considered weak bases, and the pyrimidine nitrogens are protonated in extremely acid conditions (pH < 1), while the NH2 group has a pKa around 5 depending on the electronic effects of the substituents on the aromatic rings. As a consequence, the amino-pyrimidine moiety is in the neutral form at physiological pH (7.4). Among the synthesized compounds, MPY1, MPY3, and PY1 are characterized by additional acid/base moieties, particularly a phenolic group in the meta position for MPY1 and PY1 and an additional primary aliphatic amine for MPY3. To estimate the protonation constants, UV-visible spectroscopy was preferred over potentiometry since the lower concentration range that is required allows it to work in an aqueous medium with a negligible percentage of methanol (<2% v/v). Figure 3 reports the UV-Vis pH-metric titration of MPY1 in the pH range of 2–11. In extremely acid conditions (pH 2, red spectrum), the amine group on the pyrimidine ring is fully protonated, and the molecule is positively charged (H2L^+). The maximum absorbance is observed at 400 nm, with a shoulder at 500 nm. […] Finally, in basic conditions (pH 11, blue spectrum) the phenolic group is deprotonated, and a negatively charged species is observed (L^−) with λmax at 406 nm. […] By plotting the absorbance value vs. pH at λmax, a titration curve is observed ([…]), with two equivalent points around pH = 5 and pH = 9. […] PY1 (Figure S3) is fully protonated below pH 5 (H3L+) and negatively charged in basic conditions (HL^−, L^2−). To estimate protonation constants and pKa values, spectrophotometric data were elaborated using Hypspec, and the logβ values, together with pKa, are reported in Table 1.
To perform spectrophotometric titrations, ligands (denoted generally as L in the following) were dissolved in methanol to give a mother solution (2.50 mM) that was then diluted in water to a final volume of 25 mL in order to obtain a 25/50 μM concentration, depending on the compound, in order to have a maximum absorbance in a range of 0.4–1. The pH (initial value ~5) was varied by adding small amounts (1 μL) of concentrated NaOH/HCl (4 M) in order to investigate the spectral behavior of the 2–11 pH range. In these conditions, the volume variations were negligible. A constant ionic strength (NaNO3, 0.1 M) was maintained in all the experiments. The overall protonation constants (βqr) are defined by the following equations:qL^l− + rH^+ ⇌ [LqHr]^(r − ql)(1) (2) βqr=LqHr^r − ql/L^−l]^q · H^+]^r where L is the ligand in the completely dissociated form and H is a proton. βqr values were refined from spectrophotometric data using least-squares calculations in HypSpec. The results of least-squares calculations include the standard deviations and correlation coefficients of the refined parameters. The quantities were obtained by performing error propagation calculations from the experimental errors on the parameters. The stability constant refinement furnishes least-squares estimates of the standard deviation, σ, of the stability constant, β. The error on logβ is calculated as follows: σ(logβ) = [log(β + σ) − log(β − σ)]/2, as previously reported.

HCT116 cells [9] = test: Cell cycle analysis (propidium iodide cytofluorimetry); type: cell-based, human; conditions: HCT116, 48 h at GI50 dose; control 17%
Protocol: as §4, §5

PC3 cells [10] = test: as above; type: cell-based, human; conditions: PC3, 48 h at GI50 dose; control 14.6%
Protocol: as §4, §5

[11] = aqueous solution, spectrophotometric data, HypSpec
[12] = logβ11 (MPY1, MPY3) or logβ12 − logβ11 (PY1), read-out: pKa2
[13] = logβ12 − logβ11 (MPY1, MPY3) or logβ13 − logβ12 (PY1), read-out: pKa1

Molecule	% cells SubG1 (apoptotic cells) (LNCaP cells [2]) [%]	% cells S (LNCaP cells [2]) [%]	% cells G2/M (LNCaP cells [2]) [%]	% cells G0/G1 (LNCaP cells [2]) [%]	GI50 (HT29 cells [3]) [µM]	GI50 (HCT116 cells [4]) [µM]	GI50 (LNCaP cells [6]; Homo sapiens, 48 h) [µM]	GI50 (PC3 cells [1]; Homo sapiens, PC-3, 48 h) [µM]	logβ11 (overall protonation constant) [8, 11]	logβ12 (overall protonation constant) [8, 11]	pKa [8, 12]	pKa [8, 13]	other results
4,6-bis[(E)-2-(3-methoxyphenyl)ethenyl]pyrimidin-2-amine [PY4]													GI50 (PC3 cells [1]): 82.8 ± 23.4 µM
COc1cc(/C=C/C(=O)CC(=O)/C=C/c2ccc(O)c(OC)c2)ccc1O [Curcumin, (1E,6E)-1,7-bis (4-hydroxy-3-methoxyphenyl)-1,6-heptadiene-3,5-dione]	7.2	9.7	22.3	58.4	> 30	13.6 ± 2.9	> 30	23.9 ± 0.4					pKa of keto-enol moiety [5]: 8.56
COc1ccc(/C=C/C(=O)CC(=O)/C=C/c2ccc(OC)c(OC)c2)cc1OC [DiMC, bis-dimethoxycurcumin]													GI50 (HT29 cells [7]): 43.4 µM
COc1cc(/C=C/c2cc(C)nc(N)n2)ccc1O [MPY1, 4-[(E)-2-(2-amino-6-methylpyrimidin-4-yl)ethenyl]-2-methoxyphenol]							73.9 ± 9.9		8.99 ± 0.01	13.72 ± 0.01	8.99 ± 0.01	4.73 ± 0.02	
COc1ccc(/C=C/c2cc(C)nc(N)n2)cc1OC [MPY2, 4-[(E)-2-(3,4-dimethoxyphenyl)ethenyl]-6-methylpyrimidin-2-amine]							73.1 ± 14	84.4 ± 0.1					
COc1cc(/C=C/c2cc(C)nc(N)n2)ccc1OCCCN [MPY3, 4-{(E)-2-[4-(3-aminopropoxy)-3-methoxyphenyl]ethenyl}-6-methylpyrimidin-2-amine]						98 ± 13.6	68.8 ± 21.7		8.62 ± 0.01	13.04 ± 0.01	8.62 ± 0.01	4.43 ± 0.02	
COc1cc(/C=C/c2cc(/C=C/c3ccc(O)c(OC)c3)nc(N)n2)ccc1O [PY1, 4,4′-{(2-aminopyrimidine-4,6-diyl)di[(E)ethene-2,1-diyl]}bis(2-methoxyphenol)]	9.6	6.4	24.8	57.8	45.3 ± 4.1	19.9 ± 3.3	~24	~24	10.27 ± 0.03	19.30 ± 0.02	9.04 ± 0.05	4.86 ± 0.07	GI50 (LNCaP cells [6]): 24.1 ± 8.5 µM; GI50 (PC3 cells [1]): 23.5 ± 9.7 µM; logβ13 (overall protonation constant) [8, 11]: 24.17 ± 0.05; pKa ([8]; pKa3 = logβ11, read-out: pKa3): 10.27 ± 0.03
COc1ccc(/C=C/c2cc(/C=C/c3ccc(OC)c(OC)c3)nc(N)n2)cc1OC [PY3, 4,6-bis[(E)-2-(3,4-dimethoxyphenyl)ethenyl]pyrimidin-2-amine]	4.7	4.7	54.6	32.8	19.7 ± 1.1	37.9 ± 11.6	12.1 ± 2	14.7 ± 0.9					% cells G2/M (HCT116 cells [9]): 33%; % cells G2/M (PC3 cells [10]): 62%
